We go through four compounds from patent publication US20080081835A1, “Use of Ltb4 Inhibitors for the Treatment of B-Cell Leukemias and Lymphomas” (priority 2004, published 2008).

Data set [1] has as its system B-CLL cells. The experiment in a line: Biosynthesis of LTB4 by intact B-CLL cells (HPLC analysis). Format: cell-based, human. Particulars: intact cells preincubated with diamide (100 μM, two minutes), then A23187 (1 μM) and arachidonic acid (40 μM); mean of six experiments; without diamide 2.6±0.8. As for the experimental part:
pre-incubated (intact cells) with diamide (100 μM) for two minutes, followed by stimulation with A23187 (1 μM) and arachidonic acid (40 μM).
10×10^6 cells were suspended in 1 mL PBS and pre-incubated for two minutes with/without azodicarboxylic acid bis(dimethylamide), abbreviated diamide, (100 μM) prior to stimulation with arachidonic acid (40 μM) and/or calcium ionophore A23187 (1 μM). The cells were stimulated for five minutes at 37° C. and the incubations were terminated with 1 mL methanol.
After addition of 0.5 ml PBS and the internal standard PGB1 (100 pmol) to the samples, the cells were centrifuged (2500 rpm, 5 min). The supernatant was subsequently subjected to solid phase extraction on Chromabond C18 columns (200 mg, Macherey & Nagel). The methanol eluate was analysed on Waters Alliance 2695 reverse phase HPLC and detected with Waters PDA 996. Methanol:water:trifiuoroacetic acid (70:30:0.007, v/v) was used as mobile phase at a flow rate of 1.2 mL/min. Qualitative analysis was performed by comparison of retention times of synthetic standards and quantitative determinations were performed by computerized integration of the area of eluted peaks.

The subject of data set [2] is B-CLL cells. In words: Flow cytometry (FACS) analysis of CD23, CD54 and CD150 expression in CD40L activated B-CLL cells. Format: cell-based, human. Conditions: for effect on CD40-induced increased expression of CD23, CD54 and CD150: 100 nM, 96 hrs. Here is the method: FIG. 4 depicts the effects of leukotriene biosynthesis inhibitors on the expression of CD23, CD54 and CD150 in CD40L activated B-CLL. Purified B-CLL cells were co-cultured with either L cells or CD40L-L cells in the absence or presence of MK886 (10^−7 M), BWA4C (10^−7 M), and/or LTB4 (10^−7 M) for 96 hrs. When inhibitors were used, B-CLL cells were pre-treated with the inhibitor for 30 min prior to co-culturing with L cells or CD40L-L cells. B-CLL cells were collected and analysed by FACS with antibodies against CD23, CD54 or CD150. The figure depicts one typical experiment out of six. […] Cultured (described above) B-CLL cells were collected (without the plastic attached L cells) and used for FACS detection. Surface marker expression was detected by indirect immunofluorescence. One million cells/sample were washed in cold PBS containing 1% FCS and 0.1% sodium azide and then exposed to the relevant antibodies. The cells were washed and incubated with the RPE conjugated secondary antibody. All incubations were done at 4° C. Samples were run on a Becton Dickinson FACScan flow cytometer (Becton Dickinson, Mountain View, Calif.). The CellQuest software (Becton Dickinson) was used both for acquisition and analysis of the samples. Ten thousand events were collected on a FACScan flow cytometer, and the results were analysed using CellQuest (Becton Dickinson) software. Only the viable cells were considered for analysis based on their light scatter (FSC/SSC) characteristics. The following antibodies were used: MAb MHM-6 (anti-CD23, from Dr. M. Rowe, University of Wales, Cardiff, Wales, UK), MAb LB-2 (anti-CD54, from E. A. Clark, University of Washington, Seattle, Wash.), MAb IPO-3 (anti-SLAM, kind gift from S. Sidorenko, Acad. of Science of Ukraine, Kiev, Ukraine) and RPE conjugated rabbit anti-mouse Ig F(ab′)2 (Dako, Copenhagen, Denmark) were used as secondary antibody.
In general terms: Flow cytometry measures light scatter and fluorescence of single cells or particles in a stream.

The subject of data set [3] is B-CLL cells. In words: DNA synthesis (3H-thymidine incorporation) in B-CLL cells activated by CD40L-L cells, 96 hr co-culture. Format: cell-based, human. As for the experimental part: FIG. 3 depicts the effects of leukotriene biosynthesis inhibitors on CD40L-induced thymidine incorporation in B-CLL cells. B-CLL cells (2×10^5) were co-cultured with either irradiated L cells alone (L), irradiated CD40L-L cells or irradiated CD40L-L cells plus indicated inhibitor for 96 hr. When inhibitors were used, B-CLL cells were pre-treated with the inhibitor for 30 min prior co-culturing with L cells or CD40L-L cells. The inhibitors used were: […]. The control result reported in the Figure represents B-CLL cells co-cultured with irradiated CD40L-L cells alone. ^3H-thymidine (1 μCi) was present for the final eight hours. Activation of B-CLL cells with CD40L-L treatment led to between 3580 and 15369 cpm (^3H-thymidine) incorporation (control) in different experiments. This was set as 100% in each experiment. […] Student's t-test was used to calculate statistics i.e. control vs. control plus indicated compound(s) (** P<0.01, *** P<0.001). B-cells were isolated from patients suffering with B-CLL or B-prolymphocytic leukemia (B-PLL) who had not received chemotherapy within during the previous six weeks (see Table 1 below). Peripheral blood samples were obtained after informed consent and with local ethics committee approval. Blood samples were Ficoll-Isopaque purified and washed twice in phosphate buffered saline (PBS). After that, cells were either frozen in PBS with 50% human AB serum and 10% dimethylsulfoxide or analyzed fresh. Frozen cell samples were thawed and washed in ice cold fetal calf serum and subsequently in PBS before analysis. Cells from two patients were used twice, both freshly isolated cells and after freezing with similar results. […]. The purity of the isolated cells was estimated by flow cytometric analysis (with FACS Calibur, Becton Dickinson, Mountain View, Calif.). Morphological analysis was performed after staining with May-Grunewald/Giemsa solution. The purity of B-CLL and B-PLL cells was >98%. Purified B-CLL cells were cultured in RPMI 1640 medium, supplemented with 10% FCS, 2 mM L-glutamine, 100 U/mL penicillin and 100 μg/mL streptomycin and incubated at […] in an atmosphere of 5% CO2. 2×10^5 of B-CLL cells were seeded in 200 μL medium in 96-well plates. B-CLL cells were pretreated with MK-886 (a specific FLAP inhibitor) (10^−6 to 10^−9 M) or BWA4C (a specific 5-LO inhibitor) (10^−7 to 10^−9 M) for 30 min, before co-culturing with irradiated (15,000 Rad) CD40L expressing L (CD40L-L) cells or control L (L) cells in the presence of inhibitors. LTB4 (10^−7 M) was present in the indicated cultures. Each sample was represented by triplicates. 1 μCi ^3H-thymidine was present in the wells for the final eight […] of the 96 hr cultures. The cells were harvested onto glass fibre filter and radioactivity was measured in a liquid scintillation counter.
On the technique in general: Incorporation of labelled thymidine or its analogues reports DNA synthesis.

Another data set has as its system human lung cancer cells. Particulars: cited from earlier work.
The subject of another data set is serum proteins. Conditions: Can. J. Physiol. Pharmacol. 67, 456 (1989); cited from earlier work.
Data set [4] concerns malignant cells from patients with acute or chronic myelogenous leukemia. Particulars: cited from earlier work.

Turning to `CN(C)C(=O)/N=N/C(=O)N(C)C` [diamide, Azodicarboxylic acid bis(dimethylamide)], the “production of LTB4” value with B-CLL cells [1] is reported as 33.5±1.2 pmol/10^6 cells.
`CC(=O)N(O)C/C=C/c1cccc(Oc2ccccc2)c1` [BWA4C]: the “effect on CD40-induced increased expression of CD23, CD54 and CD150” value in the data set with B-CLL cells [2] is listed as “markedly counteracted”. Further, in the data set with B-CLL cells [3] (10 nM), the “effect on thymidine incorporation” value is “significant inhibitory effect”. Further, the “potency to block DNA synthesis compared with MK-886” value with B-CLL cells [3] (FIG. 3B) is reported as “even more potent inhibitor than MK-886”.
As to `CC(C)c1ccc2c(c1)c(SC(C)(C)C)c(CC(C)(C)C(=O)O)n2Cc1ccc(Cl)cc1` [MK-886], the “effect on CD40-induced increased expression of CD23, CD54 and CD150” value with B-CLL cells [2] was “markedly counteracted”. For the same compound, the antiproliferative effects result (in the data set with human lung cancer cells; in data set [4]) was “antiproliferative effects” throughout. In the data set with B-CLL cells [3] (100 nM), the “effect on DNA synthesis induced by CD40-ligand stimulation” value was “markedly inhibited DNA synthesis”. In the data set on B-CLL cells [3] (Homo sapiens, 100 nM inhibitor, CD40L-L stimulated B-CLL cells, 96 hr, read-out: inhibitory action on thymidine incorporation), the inhibition at 0.1 µM was determined as 38%. The inhibition at 1 µM with B-CLL cells [3] (Homo sapiens, 1 μM inhibitor, CD40L-L stimulated B-CLL cells, 96 hr, read-out: inhibitory action on thymidine incorporation) was 46%. The “binding to serum proteins” value in the data set on serum proteins was “relatively high binding”.
With `CCCCC/C=C\C[C@@H](O)/C=C/C=C/C=C\[C@@H](O)CCCC(=O)O` [LTB4], the “reversal of the inhibitory effect of the inhibitors (MK-886, BWA4C) on antigen expression” value in the data set with B-CLL cells [2] (150 nM) was “almost completely reversed”. Also, the “effect alone on the expression of CD23, CD54 and CD150” value with B-CLL cells [2] (without inhibitor) is given as “did not cause any significant effect”. In addition, the “reversal of the inhibitory action of 100 nM BWA4C on thymidine incorporation” value in the data set with B-CLL cells [3] (exogenous addition, 150 nM) is “almost completely reversed”. Moreover, the “reversal of the inhibitory effect of MK-886 on thymidine incorporation” value in the data set on B-CLL cells [3] (exogenously added, 150 nM) was “almost completely reversed”. In addition, the “effect on CD40-induced thymidine incorporation, alone” value in the data set on B-CLL cells [3] (final concentration 150 nM, no inhibitor) is on record as “did not amplify”.
